Test results taken from patent publication US20090011051A1, “Methods, Compositions and Articles of Manufacture for HIF Modulating Compounds” (priority 2006, published 2009).
Read-outs that look alike come from different tables or passages of the source.

Columns and labels:
rodents = details: H2S gas; cited from earlier work
[1] = tested on: nematodes (Caenorhabditis elegans); assay: Survival of C. elegans in H2S after pre-treatment with H2S gas (Example 2); format: in vivo; details: air plus 200 ppm H2S
[2] = extreme levels (500 ppm), followed by recovery; cited from earlier work
humans [3] = details: H2S gas; cited from earlier work
rats [4] = details: moderate levels, cited from earlier work
humans [5] = details: chronic low-level exposure; cited from earlier work
rats [6] = details: cited from earlier work
[7] = tested on: nematodes (Caenorhabditis elegans)
Method: Nematodes of each strain in the fourth larval stage were moved onto fresh nematode growth plates. […] The nematodes were removed the next morning and the percent surviving nematodes was determined.

humans [8] = details: cited from earlier work

Compound | LD50 (rodents) | percent surviving nematodes ([1]; Egl-9 mutant nematodes) | percent surviving nematodes ([1]; wild type nematodes raised in air) | effect of acute exposure (knockdown effect) [2] | LD50 (humans [3]) | discriminated avoidance responses (rats [4]; immediately after the end of the exposure) | learning of baited radial arm maze task (rats [4]) | effects of chronic exposure (humans [5]) | neuropathology and behavior of exposed rat pups (rats [6]; perinatal study, 80 ppm) | cerebellar Purkinje cell morphology (rats [6]; rats, 20 or 50 ppm, 7 hours per day from gestation through post-natal day 21) | percent surviving nematodes ([7]; nematodes lacking the Egl-9 gene, air plus 100 ppm H2S, in contrast to wild type) | percent surviving nematodes ([7]; nematodes lacking the Hif-1 gene, fourth larval stage, air plus 20 ppm H2S, removed next morning) | percent surviving nematodes ([7]; wild type nematodes, fourth larval stage, air plus 20 ppm H2S, removed next morning) | symptoms (humans [8]; 50 ppm, humans) | symptoms (humans [8]; 200 ppm, within two-three hours) | symptoms (humans [8]; 400 ppm, within one to two hours, may become widespread within three hours) | symptoms (humans [8]; 800 ppm, within 45 minutes) | symptoms (humans [8]; 800 ppm, within two hours) | lethality (humans [8]; around 1000 ppm, an organism, exposure for more than around 1-2 minutes)
S [Compound H2S, Hydrogen sulfide] | approximately 700 ppm | survived | unable to survive | sudden collapse and unconsciousness | approximately 700 ppm | inhibits discriminated avoidance responses | interferes with the ability of rats to learn a baited radial arm maze task | persistent impairments in balance and memory, as well as altered sensory motor functions | no neuropathological effects or altered motor activity, passive avoidance, or acoustic startle response | longer dendritic branches with reduced aborization of cerebellar Purkinje cells | survived | unable to survive | able to survive |  |  |  |  |  | 
[C-]#[O+] [carbon monoxide, Carbon monoxide] |  |  |  |  |  |  |  |  |  |  |  |  |  | no symptoms | slight headache | frontal headache | dizziness, nausea, and/or convulsions | insensible | can expire
